Assay results published in PMC12143354, “Determining sex differences in aortic valve myofibroblast responses to drug combinations identified using a digital medicine platform” (Science Advances, 2025).
Read-outs that look alike come from different tables or passages of the source.

Key:
female VICs [1] = assay: percent αSMA GMI reduction, female VICs on soft hydrogels; type: cell-based, pig; conditions: n = 3 gels
From the text: (§1) Last, we tested the ability of […]-designed combinations to prevent myofibroblast activation in VICs cultured on other substrates beyond stiff hydrogels. […] Six male-optimized combinations were effective in preventing male VIC myofibroblast activation (Fig. 7K). […] Single-drug monotherapies used in the top male and female drug combinations were confirmed to have a minimal effect on male and female VIC αSMA GMI on soft hydrogels (table S14). […] After aspirating off the spent media, VICs were resuspended in 5 ml of fresh 15% FBS media and seeded on T25 Falcon tissue culture-treated flasks (Thermo Fisher Scientific). […] VICs were collected by aspirating off spent media, washing with PBS (Sigma-Aldrich) for 1 min, then incubating with 1× trypsin (Life Technologies) for 3 min. Trypsin was neutralized with an equal volume of 15% FBS growth media and centrifuged for 5 min at 0.2g. The media solution was then aspirated, and VICs were resuspended with 1 ml of 1% FBS media. VICs were counted with an automated hemocytometer to calculate the volume of cell solution to add to each well to seed at 6400 cells per well (20,000 cells/cm^2) for TCPS and hydrogel experiments. […] For each inhibitor, the nonlinear regression tool in Prism was used to estimate the response against the agonist by fitting the top, bottom, EC50/CC50, and hillslope to each dataset.

female VICs [2] = assay: percent αSMA GMI reduction by immunofluorescent staining, female VICs on TCPS; type: cell-based, pig; conditions: for reduction in αSMA GMI, initial screen: female VICs on TCPS, dosing range 10^-7 to 10^3 μM; for Percent αSMA reduction, Average: female VICs, TCPS, n = 3 wells
Method: (§2) VICs were collected by aspirating off spent media, washing with PBS (Sigma-Aldrich) for 1 min, then incubating with 1× trypsin (Life Technologies) for 3 min. Trypsin was neutralized with an equal volume of 15% FBS growth media and centrifuged for 5 min at 0.2g. The media solution was then aspirated, and VICs were resuspended with 1 ml of 1% FBS media. VICs were counted with an automated hemocytometer to calculate the volume of cell solution to add to each well to seed at 6400 cells per well (20,000 cells/cm^2) for TCPS and hydrogel experiments. […] For each inhibitor, the nonlinear regression tool in Prism was used to estimate the response against the agonist by fitting the top, bottom, EC50/CC50, and hillslope to each dataset.

[3] = ref (79) Irosustat, (80) Losartan, cited from earlier work
male VICs [4] = assay: percent αSMA GMI reduction, male VICs on soft hydrogels; type: cell-based, pig; conditions: single drug at L2 dose, n = 3 gels
From the text: as §1

male VICs [5] = conditions: for CC25 (percent cytotoxicity): male VICs on stiff gels, n = 3 gels; for CC1 / CC2: male VICs, stiff hydrogels, from dose response curves
Method: (§3) After culture on hydrogels or TCPS, the spent drug-containing media were removed, and VICs were immersed in a 4% paraformaldehyde solution in PBS for 20 min and then permeabilized for 1 hour with 0.1% Triton X-100 (Thermo Fisher Scientific) in PBS. Cells were then blocked with 5% bovine serum albumin in PBS for 1 hour at room temperature or over the weekend at 4°C. […] Last, VICs were washed once with PBS and then stored in PBS at 4°C until imaging. Gel samples were imaged in situ using a Nikon Eclipse Ti2-E and analyzed using an automated MATLAB code to quantify the αSMA gradient mean intensities and caspase-3 intensities normalized to cell mask for each cell. A minimum of 100 cells were used per gel with multiple gels used per condition.
(§4) Percent cytotoxicity was determined by designating each cell as alive or dead using caspase-3 intensity normalized to cell mask intensity, which was thresholded using a positive and negative control for cell death [10 nM staurosporine (Cell Signaling Technologies) or 1% FBS media]. The bottom value for every curve fit was set to 0, and the top value was constrained to a maximum of 100 to indicate the maximum possible effect of the drug. […] Absolute EC and CC values for % αSMA reduction and percent cytotoxicity were quantified using the top, bottom, EC50/CC50, and hillslope values estimated from the curve fits generated in GraphPad Prism (GraphPad Software Inc).

female VICs [6] = conditions: for CC25 (percent cytotoxicity): female VICs on stiff gels, n = 3 gels; for CC1 / CC2: female VICs, stiff hydrogels, from dose response curves
Method: as §3, §4

female VICs [7] = assay: percent αSMA GMI reduction, female VICs on stiff hydrogels; type: cell-based, pig; conditions: for EC1 / EC2: from dose response curves; for Percent αSMA reduction, Average: n = 3-4 gels
Method: (§5) Glass-bottom 96-well plates (Cellvis) were placed in an autoclave jar with a scintillation vial containing 100 μl of mercaptopropyltrimethoxysilane (MPTS; Sigma-Aldrich). The autoclave jar was then lightly sealed and placed inside an oven at 60°C for a minimum of 6 hours. The autoclave jar was opened in a chemical fume hood, and the vapor-deposited well plate was stored for up to 2 hours until ready for use. Eight-arm 20-kDa PEG-norbornene (PEG-Nb) was formed as outlined previously ([76]). A 7% (w/v) PEG-Nb hydrogel precursor solution was formed by combining phosphate-buffered saline (PBS), 20-kDa PEG-Nb at a 0.98:1 thiol-to-ene ratio, 5-kDa PEG-dithiol (Jenkem), CRGDS cell binding motif (Bachem), and lithium phenyl-2,4,6-trimethyl-benzoylphosphinate (Thermo Fisher Scientific). An EPMotion 5073l automated liquid handling system (Eppendorf) was used to pipet 7 μl of the hydrogel precursor solution into the center of each well of the vapor-deposited 96-well glass-bottom plate. The well plate with the hydrogel precursor solution was then stamped using a custom 96-well plate stamp, inverted, and cured under ultraviolet light at 10 mW/cm^2 for 3 min to induce gelation. The stamp was carefully removed by hand, and the newly formed gels were sterilized with a solution of 5% isopropyl alcohol (Thermo Fisher Scientific) in PBS for 20 min. Gels were then washed twice with PBS and stored in VIC media composed of Media199 (Life Technologies), 1% fetal bovine serum (FBS, Life Technologies), amphotericin B (1 μg/ml; Thermo Fisher Scientific), penicillin (50 U/ml; Sigma-Aldrich), and streptomycin (50 μg/ml; Sigma-Aldrich). Last, the hydrogels were placed in an incubator at 37°C with 5% carbon dioxide for up to 24 hours until experimental use.
(§6) Media changes were performed every 24 to 48 hours until cells reached ~80% confluency. […] The media solution was then aspirated, and VICs were resuspended with 1 ml of 1% FBS media. VICs were counted with an automated hemocytometer to calculate the volume of cell solution to add to each well to seed at 6400 cells per well (20,000 cells/cm^2) for TCPS and hydrogel experiments. For all experiments, VICs were seeded with 1% FBS media containing the specified drug doses and incubated at 37°C with 5% carbon dioxide with media changes every 48 to 72 hours if needed.
(§7) Drug stock solutions were discarded after two thaw cycles or after 10 months of storage. For all experiments, drug dilutions were calculated and added to VIC media to ensure that total DMSO levels remained below 1% for cytotoxicity and αSMA reduction curve fitting experiments and below 0.3% for drug combination experiments.
as §3
(§8) Curve fitting for VIC percent αSMA reduction and cytotoxicity was performed using GraphPad Prism 10 (GraphPad Software Inc). For each inhibitor, the nonlinear regression tool in Prism was used to estimate the response against the agonist by fitting the top, bottom, EC50/CC50, and hillslope to each dataset. After 2 days of culture, the percent αSMA reduction was calculated using the average αSMA gradient mean intensities of the control relative to the drug condition using Eq. 1 %αSMA reduction=100×(Control−Drug Condition/Control) (1)

male VICs [8] = assay: percent αSMA GMI reduction by immunofluorescent staining, male VICs on TCPS; type: cell-based, pig; conditions: for reduction in αSMA GMI, initial screen: male VICs on TCPS, dosing range 10^-7 to 10^3 μM; for Percent αSMA reduction, Average: male VICs, TCPS, single drug at L2 dose, n = 3 wells
Method: as §2

male VICs [9] = assay: percent αSMA GMI reduction, male VICs on stiff hydrogels; type: cell-based, pig; conditions: male VICs; for EC1 / EC2: from dose response curves; for Percent αSMA reduction, Average: n = 3-4 gels
Method: as §5, §6, §7, §3, §8

Row | Structure (SMILES) | reduction in αSMA GMI, initial screen (female VICs [2]) [%] | Percent αSMA reduction, Average (male VICs [4]) [%] | CC25 (percent cytotoxicity) (male VICs [5]) [µM] | CC1 (male VICs [5]) [µM] | CC2 (male VICs [5]) [µM] | CC25 (percent cytotoxicity) (female VICs [6]) [µM] | CC1 (female VICs [6]) [µM] | CC2 (female VICs [6]) [µM] | EC1 (female VICs [7]) [µM] | EC2 (female VICs [7]) [µM] | Percent αSMA reduction, Average (female VICs [7]; single drug at level 1 dose) [%] | Percent αSMA reduction, Average (female VICs [7]; single drug at level 2 dose) [%] | reduction in αSMA GMI, initial screen (male VICs [8]) [%] | Percent αSMA reduction, Average (male VICs [8]) [%] | EC1 (male VICs [9]) [µM] | EC2 (male VICs [9]) [µM] | Percent αSMA reduction, Average (male VICs [9]; single drug at level 1 dose) [%] | Percent αSMA reduction, Average (male VICs [9]; single drug at level 2 dose) [%] | Percent αSMA reduction, Average (female VICs [1]; single drug at L2 dose) [%] | Percent αSMA reduction, Average (female VICs [2]; single drug at L2 dose) [%] | other results
1 | NS(=O)(=O)Oc1ccc2c3c(c(=O)oc2c1)CCCCC3 [Irosustat] | > 25 | -10.38 | 125 | 48.5 | 58.7 | 109 | 50.2 | 57.9 | 74.4 | 84.7 | 9.62 | -0.55 | > 25 | -1.15 | 92.6 | 106.3 | 0.84 | 0.67 | – | – | Percent αSMA reduction, Average (female VICs [1]; single drug at L1 dose): 4.80%; Percent αSMA reduction, Average (female VICs [2]; single drug at L1 dose): 1.88%; Cmax ([3]; read-out: 5% Cmax, 5% of Cmax from FDA documents and clinical studies): 10.6 nM; Cmax ([3]; read-out: 10% Cmax, 10% of Cmax from FDA documents and clinical studies): 21.2 nM
2 | Fc1ccc(Cl)cc1-c1nc(Nc2ccncc2)c2nccnc2n1 [SD-208] | > 25 | 5.58 | 58.9 | 26.6 | 31.1 | 70.1 | 34.8 | 40.1 | 0.0061 | 0.0275 | 4.19 | 8.81 | > 25 | 7.80 | 0.0582 | 0.188 | 14.60 | 0.63 | 9.37 | 3.05 | –
3 | O=C(COCC(=O)Nc1ccc(Cl)cc1C(=O)O)Nc1cccc(-c2ccoc2)c1 [TM5441] | > 25 | 13.16 | 51.3 | 18.9 | 21.9 | 191 | 19.7 | 31.1 | 24.8 | 33.6 | 1.52 | -7.64 | > 25 | 18.36 | 4.96 | 9.3 | -1.46 | 2.18 | 17.16 | 8.37 | –
